The values that follow come from EP1996603B1, “LIPID A ANTAGONISTS WITH ANTI-SEPTIC SHOCK, ANTI-INFLAMMATORY, ANTI-ISCHEMIA AND ANALGESIC ACTIVITY” (Università Degli Studi Di Milano - Bicocca, priority 2006, dated 2007).

The subject of one assay is BMΦ, BMDC and D1 cells. Kind of assay: Lipid A-induced TNFα production in macrophages and dendritic cells (ELISA). Type of assay: cell-based, Mouse. Here is the method: BMΦ and DC were derived from bone marrow cells and divided in two separate cultures. For DC preparation bone marrow cells were cultured in complete IMDM supplemented with 10% supernatant of GM-CSF-transduced B16 tumor cells [R. Soiffer, T. Lynch, M. Mihm, K. Jung, C. Rhuda, J. C. Schmollinger, F. S. Hodi, L. Liebster, P. Lam, S. Mentzer, S. Singer, K. K. Tanabe, A. B. Cosimi, R. Duda, A. Sober, A. Bhan, J. Daley, D. Neuberg, G. Parry, J. Rokovich, L. Richards, J. Drayer, A. Berns, S. Clift, L. K. Cohen, R. C. Mulligan, G. Dranoff, Proc. Natl. Acad. Sci. U S A. 1998, 95(22), 13141-13146]. Fresh medium was added every 2 d. After 7-10 d of culture, cells were analyzed for CD11c expression and used in assays when 90% were CD11c positive. For BMΦ preparation bone marrow cells were cultured in complete IMDM supplemented with 10% supernatant of M-CSF-transduced NIH3T3 cells. Also in this case, fresh medium was added every 2 d. After 7-10 d of culture, cells were analyzed for Mac1 expression and used in assays when at least 90% were Mac1 positive. D1 cells were cultured in complete IMDM supplemented with 10% supernatant of GM-CSF-transduced B16 tumor cells.
D1 cells, BMDC and MΦ were plated in 48 well plates at a concentration of 200000 cells/well in 200µL of medium. One or two hours after plating they were treated with different amounts of compounds Ic and Id for 30 min and then stimulated with Lipid A from Escherichia coli (F583, Rd mutant Sigma, 0.5µM) for 18 h.
Given the pivotal role of early-activated DC and MΦ in directing inflammatory reactions, compounds Ia, Ic and Id were tested for their ability to antagonize the stimulatory activity of lipid A on bone marrow derived macrophages (BMΦ) and DC (BMDC) by interfering with their capacity to induce TNFα production. As source of DC, D1 cells, a long term growth factor (GM-CSF)-dependent DC line [C. Winzler et al. J. Exp. Med. 1997, 185, 317-327] were also used. BMΦ, BMDC and D1 cells were stimulated with lipid A (0.5 µM) after a pre-exposure to compounds Ia, Ic and Id and the amount of TNFα released in the supernatant was measured by ELISA.
Background: In an ELISA, binding on a coated surface is turned into a signal by an enzyme label.

Another assay has as its system TLR9. Kind of assay: TNFα production after stimulation with CpG (TLR9 selectivity). It is filed as cell-based, Mouse. Particulars: stimulation through CpG, recognized by TLR9. Here is the method:
• Figure 1. Antagonistic activity of compounds Ia, Ic and Id on lipid A-stimulated cytokine production in BMDC, BMØ and D1 cells. TNFα production was measured in the supernatants 24 h later. From the right: lipid A (0.5µM), cells treated with lipid A alone; DMSO: cells incubated in the presence of complete medium plus DMSO; inhibitor 50 µM, cells treated only with monosaccharides Ia, Ic and Id; other columns, lipid A + compounds […] at increasing doses. The data represent means and standard deviations of triplicate wells. This is a representative of three independent experiments. *, p < 0.05; **, p < 0.01; ***, p< 0.001. • Figure 2. TLR-4 selectivity of monosaccharide Id. […] IL-1β was measured in the supernatants by ELISA. […] Lower panels, TNFα production measured by ELISA 24 h after stimulation with CpG (selective for TLR-9) or PAM3Cys-SK4 (selective for TLR-2) in the presence of compound Id. […] The cells were then analyzed by FACS for the presence of annexin V and propidium iodide (PI) double positive cells. […] NF-kB activation was evaluated in the nuclear extract 2 h later and expressed as optical density (OD) at 450 nm. […] Effect of different doses of compound Id on carrageenan induced edema in mice measured 4h after the exposure and expressed as difference between the paw volume of treated paw versus the contralateral paw. […]

“Also recorded” adds a separate entry of the source.

As for `CCCCCCCCCCCCCCO[C@H]1[C@@H](OC)O[C@H](C[N+](C)(C)C2CCCC2)[C@@H](O)[C@@H]1OCCCCCCCCCCCCCC` [Compound Id, methyl 6-deoxy-6-N,N',N"-dimethylcyclopentylammonium-2,3-di-O-tetradecyl-α-D-glucopyranoside], the “direct inflammatory function (stimulating cytokines production)” value in the assay with BMΦ, BMDC and D1 cells (cells treated with compound alone, without lipid A) was “did not show any direct inflammatory function”. For the same compound, the “relative potency as inhibitor of lipid A” value in the assay on BMΦ, BMDC and D1 cells (comparison between compounds Ia, Ic and Id) is “more potent than Ic”. Moreover, the TNFα production entry in the assay on BMΦ, BMDC and D1 cells (stimulation with lipid A (0.5 µM) after pre-exposure to compound, TNFα released in the supernatant measured by ELISA, BMΦ, BMDC and D1 cells) is given as “interfered with lipid A's action in a dose-dependent manner; also recorded: lower activity; also recorded: inhibited”; in the assay with TLR9, “not inhibited”.
